Our source for the IC50 values is patent publication US20180065917A1, “IMMUNE CHECKPOINT INHIBITORS, COMPOSITIONS AND METHODS THEREOF” (Polaris Pharmaceuticals, Inc., priority 2016, published 2018).

SMILES strings stand for the structures. Counter-ions that a name gives are not always drawn. Some results are limits rather than exact numbers.

The IC50 is the concentration that inhibits the measured activity by half. Read a high IC50 as lower potency.

T1 sequence (Q9NZQ7 19-239 limits assumed, one chain of several): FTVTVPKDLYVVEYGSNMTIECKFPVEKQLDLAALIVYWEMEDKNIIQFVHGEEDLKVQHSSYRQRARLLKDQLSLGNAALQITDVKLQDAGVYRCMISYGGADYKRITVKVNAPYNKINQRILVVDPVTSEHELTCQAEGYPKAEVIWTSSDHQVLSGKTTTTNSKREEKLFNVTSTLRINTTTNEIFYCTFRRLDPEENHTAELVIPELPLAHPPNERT

The assay concerns the target T1, PD-L1/PD-1 complex formation (Homo sapiens, UniProt Q9NZQ7).
T1 construct: purchased BPS Bioscience
Description: PD-L1/PD-1 Interaction Assay (ELISA platform). Type of assay: binding. The settings on record: human PD-1-Fc coated plates, PD-L1-Fc-biotin 0.1 μg/ml, compounds pre-incubated 2 hours. How it is done:
The ability of compounds to block PD-L1/PD-1 complex formation was evaluated using biochemical interaction assay based on the ELISA platform.
EIA/RIA high binding 96-well plates (Costar) were coated with human PD-1-Fc protein diluted in PBS to 0.5 μg/ml overnight at 4° C. The PD-1-Fc coated plates were washed in PBST and blocked in blocking buffer (2% BSA in PBST). Serially diluted compounds were pre-incubated with PD-L1-Fc-biotin (0.1 μg/ml final) for 2 hours on a shaker at room temperature. The PD-1-Fc coated plates were washed with PBST and solutions containing PD-L1 and compounds were added to the plates. The PD-1-Fc coated plates were incubated with PD-L1 and compound solution for 2 hours on a shaker at room temperature. After the incubation unbound PD-L1 was washed away with PBST and plates were incubated with the blocking buffer for 10 minutes. The bound PD-L1-Fc-biotin was detected with streptavidin-HRP and TMB substrate. The plates were read at OD450 nm in a plate reader (i3 from Molecular Devices) and percentages of inhibition of PD-L1/PD-1 complex formation were calculated.
PD-1-Fc protein was made at Polaris and PD-L1-Fc was purchased from BPS Bioscience.
(In an ELISA, binding on a coated surface is turned into a signal by an enzyme label.)
Consider `C#Cc1cc(CN2CCCC[C@H]2C(=O)O)ccc1OCc1cccc(-c2cccc(COc3ccc(CN4CCCC[C@H]4C(=O)O)cc3C#C)c2C)c1C` [Example 26, (2S,2′S)-1,1′-(((((2,2′-Dimethyl-[1,1′-biphenyl]-3,3′-diyl)bis(methylene))bis(oxy))bis(3-ethynyl-4,1-phenylene))bis(methylene))bis(piperidine-2-carboxylic acid) di-trifluoroacetic acid salt], for which the IC50 lay within 0.011 to 0.1 µM.
For `Cc1c(COc2ccc(CN[C@@H](C(=O)O)[C@H](C)O)cc2Br)cccc1-c1cccc(COc2ccc(CN[C@@H](C(=O)O)[C@H](C)O)cc2Br)c1C` [Example 18, (2R,2′R,3S,3′S)-2,2′-((((((2,2′-Dimethyl-[1,1′-biphenyl]-3,3′-diyl)bis(methylene))bis(oxy))bis(3-bromo-4,1-phenylene))bis(methylene))bis(azanediyl))bis(3-hydroxybutanoic acid) di-trifluoroacetic acid salt], the IC50 was in the range of 0.0001 to 0.01 µM.
The value for `Cc1c(COc2ccc(CN3CCCC[C@H]3C(=O)O)cc2C(F)F)cccc1-c1cccc(COc2ccc(CN3CCCC[C@H]3C(=O)O)cc2C(F)F)c1C` [Example 29, (2S,2′S)-1,1′-(((((2,2′-Dimethyl-[1,1′-biphenyl]-3,3′-diyl)bis(methylene))bis(oxy))bis(3-(difluoromethyl)-4,1-phenylene))bis(methylene))bis(piperidine-2-carboxylic acid) di-trifluoroacetic acid salt] was 0.0001 to 0.01 µM.
The value for `Cc1c(COc2ccc(CN3CCCC[C@H]3C(=O)NCCN(C)C)cc2Br)cccc1-c1cccc(COc2ccc(CN3CCCC[C@H]3C(=O)NCCN(C)C)cc2Br)c1C` [Example 25, (2S,2′S)-1,1′-(((((2,2′-Dimethyl-[1,1′-biphenyl]-3,3′-diyl)bis(methylene))bis(oxy))bis(3-bromo-4,1-phenylene))bis(methylene))bis(N-(2-(dimethylamino)ethyl)piperidine-2-carboxamide)] was 1.01 to 30 µM; that for `Cc1c(COc2ccc(CN3CCCC[C@H]3C(N)=O)cc2Br)cccc1-c1cccc(COc2ccc(CN3CCCC[C@H]3C(N)=O)cc2Br)c1C` [Example 23, (2S,2′S)-1,1′-(((((2,2′-Dimethyl-[1,1′-biphenyl]-3,3′-diyl)bis(methylene))bis(oxy))bis(3-bromo-4,1-phenylene))bis(methylene))bis(piperidine-2-carboxamide)] was 1.01 to 30 µM; that for `CCc1cc(CN2CCCC[C@H]2C(=O)O)ccc1OCc1cccc(-c2cccc(COc3ccc(CN4CCCC[C@H]4C(=O)O)cc3CC)c2C)c1C` [Example 27, (2S,2′S)-1,1′-(((((2,2′-Dimethyl-[1,1′-biphenyl]-3,3′-diyl)bis(methylene))bis(oxy))bis(3-ethyl-4,1-phenylene))bis(methylene))bis(piperidine-2-carboxylic acid) di-trifluoroacetic acid salt] was 0.11 to 1 µM.
`Cc1c(COc2ccc(CNC(C)(C)C(=O)O)cc2Br)cccc1-c1cccc(COc2ccc(CNC(C)(C)C(=O)O)cc2Br)c1C` [Example 14, 2,2′-((((((2,2′-Dimethyl-[1,1′-biphenyl]-3,3′-diyl)bis(methylene))bis(oxy))bis(3-bromo-4,1-phenylene))bis(methylene))bis(azanediyl))bis(2-methylpropanoic acid) di-trifluoroacetic acid salt] returned an IC50 of 0.0001 to 0.01 µM.
Next, `COC(=O)[C@@H]1CCCCN1Cc1ccc(OCc2cccc(-c3cccc(COc4ccc(CN5CCCC[C@H]5C(=O)OC)cc4Br)c3C)c2C)c(Br)c1` [Example 4, Dimethyl 1,1′-(((((2,2′-dimethyl-[1,1′-biphenyl]-3,3′-diyl)bis(methylene))bis(oxy))bis(3-bromo-4,1-phenylene))bis(methylene))(2S,2′S)-bis(piperidine-2-carboxylate)]: greater than 30 µM; `CSc1cc(CN2CCCC[C@H]2C(=O)O)ccc1OCc1cccc(-c2cccc(COc3ccc(CN4CCCC[C@H]4C(=O)O)cc3SC)c2C)c1C` [Example 28, (2S,2′S)-1,1′-(((((2,2′-Dimethyl-[1,1′-biphenyl]-3,3′-diyl)bis(methylene))bis(oxy))bis(3-(methylthio)-4,1-phenylene))bis(methylene))bis(piperidine-2-carboxylic acid) di-trifluoroacetic acid salt]: 0.11 to 1 µM; `Cc1c(COc2ccc(CN[C@H](CO)C(=O)O)cc2Br)cccc1-c1cccc(COc2ccc(CN[C@H](CO)C(=O)O)cc2Br)c1C` [Example 17, (2R,2′R)-2,2′-((((((2,2′-Dimethyl-[1,1′-biphenyl]-3,3′-diyl)bis(methylene))bis(oxy))bis(3-bromo-4,1-phenylene))bis(methylene))bis(azanediyl))bis(3-hydroxypropanoic acid) di-trifluoroacetic acid salt]: 0.0001 to 0.01 µM.
Compound `Cc1c(COc2ccc(CN[C@@H](C)C(=O)O)cc2Br)cccc1-c1cccc(COc2ccc(CN[C@@H](C)C(=O)O)cc2Br)c1C` [Example 15, (2S,2′S)-2,2′-((((((2,2′-Dimethyl-[1,1′-biphenyl]-3,3′-diyl)bis(methylene))bis(oxy))bis(3-bromo-4,1-phenylene))bis(methylene))bis(azanediyl))dipropionic acid di-trifluoroacetic acid salt] showed an IC50 of 0.0001 to 0.01 µM.
In the case of `Cc1c(COc2ccc(CNCCO)cc2Br)cccc1-c1cccc(COc2ccc(CNCCO)cc2Br)c1C` [Example 5, 2,2′-((((((2,2′-Dimethyl-[1,1′-biphenyl]-3,3′-diyl)bis(methylene))bis(oxy))bis(3-bromo-4,1-phenylene))bis(methylene))bis(azanediyl))bis(ethan-1-ol) di-trifluoroacetic acid salt], the IC50 fell in the range of 0.0001 to 0.01 µM.
Next, `COc1nc(OCc2cccc(-c3cccc(COc4ccc(CNCCNC(C)=O)c(OC)n4)c3C)c2C)ccc1CNCCNC(C)=O` [Example 3, N,N′-(((((((2,2′-Dimethyl-[1,1′-biphenyl]-3,3′-diyl)bis(methylene))bis(oxy))bis(2-methoxypyridine-6,3-diyl))bis(methylene))bis(azanediyl))bis(ethane-2,1-diyl))diacetamide]: 0.011 to 0.1 µM; `Cc1c(COc2ccc(CN[C@H](C)C(=O)O)cc2Br)cccc1-c1cccc(COc2ccc(CN[C@H](C)C(=O)O)cc2Br)c1C` [Example 16, (2R,2′R)-2,2′-((((((2,2′-Dimethyl-[1,1′-biphenyl]-3,3′-diyl)bis(methylene))bis(oxy))bis(3-bromo-4,1-phenylene))bis(methylene))bis(azanediyl))dipropionic acid di-trifluoroacetic acid salt]: 0.011 to 0.1 µM.
The value for `Cc1c(COc2ccc(CN3CCCC[C@@H]3C(=O)O)cc2Br)cccc1-c1cccc(COc2ccc(CN3CCCC[C@@H]3C(=O)O)cc2Br)c1C` [Example 2, (2R,2′R)-1,1′-(((((2,2′-dimethyl-[1,1′-biphenyl]-3,3′-diyl)bis(methylene))bis(oxy))bis(3-bromo-4,1-phenylene))bis(methylene))bis(piperidine-2-carboxylic acid)] was 0.011 to 0.1 µM.
